Experimental data taken from patent US9989532B2, “Methods and compositions for detecting coagulation inhibitors” (The University of North Carolina at Chapel Hill, priority 2013, dated 2018).

How the values were obtained:
a2M-Xa [1] = target: T1, a2M-Xa (Homo sapiens, UniProt P00742); experiment: substrate cleavage by a2M-Xa (factor Xa caged in alpha-2-macroglobulin); format: biochemical; set-up: Factor Xa was purchased from Enzyme Research Labs; host or cells: no expression host: complex formed in vitro from purchased factor Xa and a2M purified from human plasma, then purified on heparin Sepharose and Q-Sepharose; conditions: for cleavage of the substrate, (d) a2M-Xa: substance in sample, substrate methoxycarbonyl-D-cyclohexylalanyl-glycyl-arginine-para-nitroaniline
Protocol: (§1) Substrate cleavage in the presence of test sample is measured for all four test conditions.
(§2) There are any number of substrates for thrombin and factor Xa and other proteases as described herein that can be used in the methods of this invention. In some embodiments, the substrate is a chromogenic substrate, which can be a para-nitroanalide synthetic substrate. Non-limiting examples of a chromogenic substrate of this invention include tosyl-glycyl-prolyl-arginine para-nitroanilide, H-D-cyclohexylglycyl-alanyl-arginine para-nitroanilide, H-beta-alanyl-glycyl-arginine para-nitroanilide, H-D-cyclohexylalanyl-alanyl-arginine para-nitroanilide, H-D-phenylalanyl-pipecolyl-arginine para-nitroanilide, H-D-(carbobenzoyl)lysyl-prolyl-arginine para-nitroanilide, H-beta-alanyl-glycyl-arginine 7-amino-4-methylcoumarin, H-D-cyclohexylglycyl-alanyl-arginine 7-amino-4-methylcoumarin, H-D-(carbobenzoyl)lysyl-prolyl-arginine 7-amino-4-methylcoumarin, methoxycarbonyl-D-cyclohexylalanyl-glycyl-arginine para-nitroanilide, methoxycarbonyl-D-cyclohexylglycyl-glycyl-arginine para-nitroanilide, benzoyloxycarbonyl-D-arginyl-glycyl-arginine para-nitroanilide, benzoyl-isoleucyl-glutamyl-glycyl-arginine para-nitroanilide, methylsulfonyl-D-cyclohexylalanyl-glycyl-arginine 7-amino-4-methylcoumarin, and methoxycarbonyl-D-cyclohexylalanyl-glycyl-arginine 7-amino-4-methylcoumarin.
(§3) 0.5 mM of para-nitroanilide synthetic substrate (Pefachrome FXa) was added and the rate of substrate cleavage determined by appearance of yellow color characteristic of the cleaved substrate. Pefachrome FXa is also effective as a substrate for thrombin.
(§4) The rates of substrate cleavage were converted to concentrations using measured Km and kcat values determined as previously described (Joost et al. “Inhibition of human blood coagulation factor Xa by alpha-2-macroglobulin” Biochemistry 26:5932-5937 (1987) doi: 10.1021/bi00392a053) (FIGS. 1-5).

thrombin = target: T2, thrombin (Homo sapiens, UniProt P00734); experiment: substrate cleavage by thrombin in presence of sample; format: biochemical; conditions: substance in sample; substrate methoxycarbonyl-D-cyclohexylalanyl-glycyl-arginine-para-nitroaniline
T2 construct: Thrombin (factor IIa) was purchased from Haematologic Technologies; purchased Haematologic Technologies
Protocol: as §1, §2
(§5) Thrombin (factor IIa) was purchased from Haematologic Technologies. Factor Xa was purchased from Enzyme Research Labs.

factor Xa = target: T3, factor Xa (Homo sapiens, UniProt P00742); experiment: substrate cleavage by factor Xa in presence of sample; format: biochemical; conditions: substance in sample; substrate methoxycarbonyl-D-cyclohexylalanyl-glycyl-arginine-para-nitroaniline
T3 construct: Factor Xa was purchased from Enzyme Research Labs; purchased Enzyme Research Labs
T3 sequence (P00742 235-488 limits assumed): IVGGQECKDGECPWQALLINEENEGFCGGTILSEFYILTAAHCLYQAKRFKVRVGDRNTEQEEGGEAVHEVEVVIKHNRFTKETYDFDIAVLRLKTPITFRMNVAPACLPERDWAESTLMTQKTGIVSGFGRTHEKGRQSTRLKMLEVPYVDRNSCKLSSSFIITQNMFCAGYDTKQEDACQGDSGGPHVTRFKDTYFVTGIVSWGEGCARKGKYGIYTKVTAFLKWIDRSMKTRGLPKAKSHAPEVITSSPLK
T3 sequence (P00742 41-179 limits assumed): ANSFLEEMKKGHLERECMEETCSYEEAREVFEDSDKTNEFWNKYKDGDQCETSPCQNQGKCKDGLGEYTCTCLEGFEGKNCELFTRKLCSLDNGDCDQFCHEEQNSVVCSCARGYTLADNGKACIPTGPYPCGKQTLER
Protocol: as §1, §2, §5

a2M-thrombin (a2M-IIa) = target: T4, a2M-thrombin (a2M-IIa) (Homo sapiens, UniProt P00734); experiment: substrate cleavage by a2M-IIa (thrombin caged in alpha-2-macroglobulin); format: biochemical; conditions: for cleavage of the substrate, (b) a2M-thrombin (a2M-IIa): substance in sample, substrate methoxycarbonyl-D-cyclohexylalanyl-glycyl-arginine-para-nitroaniline
T4 construct: Thrombin (factor IIa) was purchased from Haematologic Technologies; host or cells: no expression host: complex formed in vitro from purchased thrombin and a2M purified from human plasma, then purified on Q-Sepharose
Protocol: as §1, §2, §3
Purified a2M-IIa was eluted from the column with 1M sodium chloride in 20 mM HEPES (pH 7.4).
as §4

[2] = cited from earlier work; for time to peak plasma concentration: after oral ingestion
mice = experiment: saphenous vein injury bleeding time in mice; format: in vivo; conditions: FIG. 6, normal mouse
Protocol: Mice were administered 160 μg/kg rivaroxaban designed to produce a free plasma level of 36 ng/mL (75 nM), assuming 1.6% recovery based on estimates from Gnoth et al. (“in vitro and in vivo P-glycoprotein transport characteristics of rivaroxaban” J Pharmacol Exp Thor. 338:372-380 (2011) doi: 10.1124/jpet.111.180240) and Weinz et al. (“Pharmacokinetics of BAY 59-7939—an oral, direct Factor Xa inhibitor—in rats and dogs” Xenobiotica 35:891-910 (2005) doi: 10.1080/00498250500250493) and accounting for 95-98% blood cell and plasma protein binding (Weinz et al. “Pharmacokinetics of BAY 59-7939—an oral, direct Factor Xa inhibitor—in rats and dogs” Xenobiotica 35:891-910 (2005))

[3] = cited from earlier work
a2M-IIa = a2M-IIa substrate cleavage test on plasma of fed mice
Protocol: (§6) Mice were fed Xarelto or Pradaxa or regular chow. Plasma from the animals was analyzed for the presence of dabigatran (active metabolite of Pradaxa) or rivaroxaban (active component of Xarelto). […] 0.5 mM of para-nitroanilide synthetic substrate (Pefachrome FXa) was added and substrate cleavage was determined by appearance of yellow color characteristic of the cleaved substrate.

a2M-Xa [4] = target: T1, a2M-Xa; conditions: substance in plasma of mice fed Pradaxa or Xarelto
Protocol: as §6

[5] = assumed, based on estimates from Gnoth et al. and Weinz et al.; cited from earlier work

Row | Compound | cleavage of the substrate, (d) a2M-Xa (a2M-Xa [1]) | cleavage of the substrate, (a) Thrombin (thrombin) | cleavage of the substrate, (c) Factor Xa (factor Xa) | cleavage of the substrate, (b) a2M-thrombin (a2M-IIa) (a2M-thrombin (a2M-IIa)) | oral bioavailability [2] | time to peak plasma concentration [2] | further results
1 | CC(=O)CC(c1ccccc1)c1c(O)c2ccccc2oc1=O (stereo not drawn) [Warfarin] | Cleavage | Cleavage | Cleavage | Cleavage | – | – | –
2 | COc1ccc(-n2nc(C(N)=O)c3c2C(=O)N(c2ccc(N4CCCCC4=O)cc2)CC3)cc1 [apixaban] | – | – | – | – | more than 50% | – | eliminated by the kidneys ([2]; in vivo): 25%; metabolism ([2]; in vivo): metabolized in part by CYP3A4
3 | [H]/N=C(/N)c1ccc(NCc2nc3cc(C(=O)N(CCC(=O)O)c4ccccn4)ccc3n2C)cc1 [dabigatran] | – | – | – | – | 7.2% | approximately 1.5 hours | time for saphenous vein injury to stop bleeding (mice; 7 μg/kg dabigatran alone): more than 2 minutes; bound to plasma proteins [3]: 35%; presence of Dabigatran in plasma (a2M-IIa; mice fed Pradaxa, animals 7-12): yes; presence of Dabigatran in plasma (a2M-IIa; mice fed Xarelto, animals 1-6): no; peak plasma level ([2]; healthy human volunteers): 150 ng/mL; route of excretion ([2]; oral treatment): predominantly excreted in the feces
4 | O=C(NC[C@H]1CN(c2ccc(N3CCOCC3=O)cc2)C(=O)O1)c1ccc(Cl)s1 [rivaroxaban] | No | Cleavage | No | Cleavage | more than 80% | approximately 3 hours | effect on substrate cleavage by purified a2M-Xa (a2M-Xa [1]; FIG. 2, buffer pH 7.4, 5 minutes incubation, 0.5 mM Pefachrome FXa): blocked substrate cleavage; time for saphenous vein injury to stop bleeding (mice; 160 μg/kg rivaroxaban alone): ~2 min; effect on a2M-Xa cleavage of substrate (a2M-Xa [4]): blocked; blood cell and plasma protein binding [3]: 95-98%; recovery [5]: 1.6%; effect on a2M-IIa cleavage of substrate (a2M-IIa; substance in plasma of mice fed Pradaxa or Xarelto): had no effect; food effect on absorption from the gastrointestinal tract ([2]; in vivo): food does not affect absorption; excreted by the kidneys ([2]; orally ingested): Sixty-six; terminal half-life ([2]; steady state, patients >75 years old): up to 12 hours; effect on substrate cleavage by purified a2M-IIa (a2M-thrombin (a2M-IIa); FIG. 1, buffer pH 7.4, 5 minutes incubation, 0.5 mM Pefachrome FXa): did not block substrate cleavage
5 | heparin | Cleavage | No | No | Cleavage | – | – | –
6 | low molecular weight heparin | Cleavage | Cleavage | No | Cleavage | – | – | –
